Structures can show the parent of a compound that is named as a salt. Bounds are passed on as bounds.

The experiment deals with KHK (Homo sapiens (Human), UniProt P50053). The experiment in a line: In Vitro KHK Enzyme Assay (HTMS).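 Note: primary screen measuring inhibition of KHK-catalysed conversion of D-fructose into fructose 1-phosphate.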 In kind it is biochemical. The conditions noted are these: 200 μM fructose, 100 μM ATP, 2 nM KHK, 60 min at 25° C.; Fructose-1-P detected by high throughput mass spectrometry.
Chain of KHK (P50053 whole entry): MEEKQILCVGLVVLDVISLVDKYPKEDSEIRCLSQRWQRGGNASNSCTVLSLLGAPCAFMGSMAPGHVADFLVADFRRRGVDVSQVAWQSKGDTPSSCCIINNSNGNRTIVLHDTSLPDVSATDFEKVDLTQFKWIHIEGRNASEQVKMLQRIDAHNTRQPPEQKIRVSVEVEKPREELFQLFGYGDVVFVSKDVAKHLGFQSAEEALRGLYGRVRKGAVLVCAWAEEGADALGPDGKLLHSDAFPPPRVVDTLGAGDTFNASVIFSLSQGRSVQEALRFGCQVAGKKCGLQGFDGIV
Description: An enzymatic assay was developed to measure KHK-mediated conversion of D-fructose to Fructose-1-P (F-1-P) using High Throughput Mass Spectroscopy (HTMS) as a means of product detection. This assay served as a primary screen to evaluate the ability to inhibit KHK enzyme activity and it has been adapted to high throughput mass spectrometry (HTMS, BioTrove RapidFire™) format for higher throughput.
The compounds to be tested were dosed in 12-points concentration from 511 μM to 0.5 μM. […] The assay was carried out in 384-well plate format.
`Cc1nn(-c2ccccc2)c2nc(C3CCN(C4CCNCC4)CC3)nc(O)c12` [Compound 89, 6-[1,4′]Bipiperidinyl-4-yl-3-methyl-1-phenyl-1H-pyrazolo[3,4-d]pyrimidin-4-ol hydrochloride] showed an IC50 of 14 µM.
With `CSc1nn(-c2ccccc2)c2cc(N3CCN(C4CCNCC4)C3=O)ccc12` [Compound 26, 1-(3-(Methylthio)-1-phenyl-1H-indazol-6-yl)-3-(piperidin-4-yl)imidazolidin-2-one hydrochloride] the figure was 1.47 µM; with `CSc1nn(-c2ccccc2)c2cc(N3CCC(N4CCNCC4)CC3)ccc12` [Compound 20, 3-(Methylthio)-1-phenyl-6-(4-(piperazin-1-yl)piperidin-1-yl)-1H-indazole hydrochloride], 0.67 µM.
With `CCc1nn(-c2ccccc2)c2nc(C3CCNCC3)nc(O)c12` [Compound 91, 3-Ethyl-1-phenyl-6-piperidin-4-yl-1H-pyrazolo[3,4-d]pyrimidin-4-ol hydrochloride] the figure was 2.4 µM; with `CSc1nn(-c2ccccc2)c2cc(N3CCN(C(=O)C4CCCN4)CC3)ccc12` (centres unmarked) [Compound 33, (4-(3-(Methylthio)-1-phenyl-1H-indazol-6-yl)piperazin-1-yl)(pyrrolidin-2-yl)methanone hydrochloride], 5.34 µM; with `Cc1nn(-c2ccccc2)c2cc(N3CCN(C)CC3)ccc12` [Compound 68, 3-Methyl-6-(4-methylpiperazin-1-yl)-1-phenyl-1H-indazole], 1.57 µM.
With `CCc1nn(-c2ccccc2)c2nc(-c3ccc(N4CC(C)NC(C)C4)cc3)cc(OC)c12` (centres unmarked) [Compound 98, 6-[4-(3,5-Dimethyl-piperazin-1-yl)-phenyl]-3-ethyl-4-methoxy-1-phenyl-1H-pyrazolo[3,4-b]pyridine] the figure was 0.3 µM; with `CSc1nn(-c2ccccc2)c2cc(NC(=O)NC3CCNCC3)ccc12` [Compound 7, 1-(3-(Methylthio)-1-phenyl-1H-indazol-6-yl)-3-(piperidin-4-yl)urea hydrochloride], 0.7 µM.
`CSc1nn(-c2ccccc2)c2cc(N3CCN(C(=O)c4ccccn4)CC3)ccc12` [Compound 30] showed an IC50 of 16.4 µM.
With `CCc1nn(-c2ccccc2)c2cc(N3CCN(C4CCNCC4)C3=O)ccc12` [Compound 49, 1-(3-Ethyl-1-phenyl-1H-indazol-6-yl)-3-(piperidin-4-yl)imidazolidin-2-one hydrochloride] the figure was 1.8 µM; with `CSc1nn(-c2ccccc2)c2cc(CCC3CCNCC3)ccc12` [Compound 185, 3-Methylsulfanyl-1-phenyl-6-(2-piperidin-4-yl-ethyl)-1H-indazole], 0.92 µM; with `CSc1nn(-c2ccccc2)c2cc(C(=O)C(=O)N3CCNCC3)ccc12` [Compound 168, 1-(3-Methylsulfanyl-1-phenyl-1H-indazol-6-yl)-2-piperazin-1-yl-ethane-1,2-dione], 4.12 µM.
For `CSc1nn(-c2ccc([N+](=O)[O-])cc2)c2cc(C(=O)N3CCNCC3)ccc12` [Compound 133, [3-Methylsulfanyl-1-(4-nitro-phenyl)-1H-indazol-6-yl]-piperazin-1-yl-methanone], the IC50 is more than 51 µM.
As for `Cc1nn(-c2ccccc2)c2cc(-c3ccc(N4CCNCC4)cc3)ccc12` [Compound 58, 3-Methyl-1-phenyl-6-(4-piperazin-1-yl-phenyl)-1H-indazole hydrochloride], the IC50 came out at 7.5 µM.
The compound `CSc1nn(-c2cccc(C)c2)c2cc(C3=CCNCC3)ccc12` [Compound 147, 3-Methylsulfanyl-6-(1,2,3,6-tetrahydropyridin-4-yl)-1-(3-methylphenyl)-1H-indazole] yielded an IC50 of 0.03 µM. Against the preceding compound, the IC50 is about 250-fold lower.
`CCc1nn(-c2ccccc2)c2cc(N3CCC4(CCNC4)C3)ccc12` (centres unmarked) [Compound 51, 6-(2,7-Diaza-spiro[4.4]non-2-yl)-3-ethyl-1-phenyl-1H-indazole hydrochloride] showed an IC50 of 1.47 µM.
The compound `CSc1nn(-c2cccc(C)c2)c2cc(N3CCNCC3)ccc12` [Compound 118, 3-Methylsulfanyl-6-piperazin-1-yl-1-m-tolyl-1H-indazole] showed an IC50 of 4.12 µM.
With `CSc1nn(-c2ccccc2)c2cc(N3CC(N4CCNCC4)C3)ccc12` [Compound 15, 3-(Methylthio)-1-phenyl-6-(3-(piperazin-1-yl)azetidin-1-yl)-1H-indazole hydrochloride] the figure was 0.56 µM; with `CCc1nn(-c2ccccc2)c2cc(N3CCN(C4CCNCC4)CC3)ccc12` [Compound 46, 3-Ethyl-1-phenyl-6-(4-(piperidin-4-yl)piperazin-1-yl)-1H-indazole hydrochloride], 0.56 µM; with `CSc1nn(-c2ccccc2)c2cc(C(=O)CC3CCNCC3)ccc12` [Compound 160, 1-(3-Methylsulfanyl-1-phenyl-1H-indazol-6-yl)-2-piperidin-4-yl-ethanone], 1 µM.
`CCc1nn(-c2ccccc2)c2nc(N3CCN(c4cccnc4)CC3)ncc12` [Compound 83, 3-Ethyl-1-phenyl-6-(4-(pyridin-3-yl)piperazin-1-yl)-1H-pyrazolo[3,4-d]pyrimidine trifluoroacetic acid] registered an IC50 of more than 30 µM.
As to `CCc1nn(-c2ccccc2)c2nc(C3CCN(C4CCNCC4)CC3)nc(O)c12` [Compound 95, 6-[1,4′]Bipiperidinyl-4-yl-3-ethyl-1-phenyl-1H-pyrazolo[3,4-d]pyrimidin-4-ol hydrochloride], the midpoint of inhibition, the IC50, lay at 11.5 µM.
Regarding `Cc1nn(-c2ccccc2)c2cc(N3CCNCC3)ccc12` [Compound 59, 3-Methyl-1-phenyl-6-(piperazin-1-yl)-1H-indazole], 1.28 µM corresponded to half-maximal inhibition (IC50).
In turn, `CSc1nn(-c2ccccc2)c2cc(NCCN3CCNCC3)ccc12` [Compound 165, (3-Methylsulfanyl-1-phenyl-1H-indazol-6-yl)-(2-piperazin-1-yl-ethyl)-amine] gave an IC50 of 0.89 µM. This IC50 and that of the compound before are within 1.5-fold of each other.
For the compound `CSc1nn(-c2ccccc2)c2cc(C=CC3CCNCC3)ccc12` [Compound 141, 3-Methylsulfanyl-1-phenyl-6-(2-piperidin-4-yl-vinyl)-1H-indazole], the IC50 stood at 0.23 µM.
As to `Cc1nn(-c2ccccc2)c2cc(N3CC(N4CCNCC4)C3)ccc12` [Compound 60, 3-Methyl-1-phenyl-6-(3-(piperazin-1-yl)azetidin-1-yl)-1H-indazole hydrochloride], the concentration for half-maximal inhibition (IC50) worked out at 2.3 µM.
On to `CSc1nn(-c2ccccc2)c2cc(C=Cc3ccc(C)nc3)ccc12` [Compound 178, 6-[2-(6-Methyl-pyridin-3-yl)-vinyl]-3-methylsulfanyl-1-phenyl-1H-indazole], for which the half-inhibitory concentration (IC50) was more than 10 µM.
With `CSc1nn(-c2ccccc2)c2cc(NC(=O)C3(c4ccccc4)CCNCC3)ccc12` [Compound 172, 4-Phenyl-piperidine-4-carboxylic acid (3-methylsulfanyl-1-phenyl-1H-indazol-6-yl)-amide] the figure was 2.15 µM.
Compound `CCOc1cc(-c2ccc(N3CCN(C)CC3)cc2)nc2c1c(CC)nn2-c1ccccc1` [Compound 103, 4-Ethoxy-3-ethyl-6-[4-(4-methyl-piperazin-1-yl)-phenyl]-1-phenyl-1H-pyrazolo[3,4-b]pyridine] registered an IC50 of 0.66 µM.
For the compound `CCc1nn(-c2ccccc2)c2cc(N3CCN(C)CC3)ccc12` [Compound 54, 3-Ethyl-6-(4-methylpiperazin-1-yl)-1-phenyl-1H-indazole], the midpoint of inhibition, the IC50, lay at 4.52 µM.
Turning to `CSc1nn(-c2ccccc2)c2cc(OCC3CCNCC3)ccc12` [Compound 107, 3-Methylsulfanyl-1-phenyl-6-(piperidin-4-ylmethoxy)-1H-indazole], the IC50 was determined as 0.44 µM. Compared with the last compound, the IC50 is about 10-fold lower.
Regarding `CSc1nn(-c2ccc([N+](=O)[O-])cc2)c2cc(C3=CCNCC3)ccc12` [Compound 124, 3-Methylsulfanyl-1-(4-nitro-phenyl)-6-(1,2,3,6-tetrahydro-pyridin-4-yl)-1H-indazole], the IC50 came to 0.49 µM.
`CSc1nn(-c2ccccc2)c2cc(N3CCN(C(=O)c4cccnc4)CC3)ccc12` [Compound 31, (4-(3-(Methylthio)-1-phenyl-1H-indazol-6-yl)piperazin-1-yl)(pyridin-3-yl)methanone] showed an IC50 of 4.95 µM. This IC50 is about 10-fold higher than that of the compound before.
`COc1ccc(-n2nc(SC)c3ccc(N4CCNCC4)cc32)cc1` [Compound 122, 1-(4-Methoxy-phenyl)-3-methylsulfanyl-6-piperazin-1-yl-1H-indazole]: the IC50 amounted to 0.83 µM.
In the case of `CSc1nn(-c2ccccc2)c2cc(N3CCN(C4CCNC4)C3=O)ccc12` (centres unmarked) [Compound 25, 1-(3-(Methylthio)-1-phenyl-1H-indazol-6-yl)-3-(pyrrolidin-3-yl)imidazolidin-2-one hydrochloride] it was 0.46 µM; in that of `COc1nn(-c2ccccc2)c2cc(-c3ccc(-n4ccnc4)cc3)ccc12` [Compound 79, 6-(4-(1H-Imidazol-1-yl)phenyl)-3-methoxy-1-phenyl-1H-indazole], more than 30 µM; in that of `CSc1nn(-c2ccccc2)c2cc(C3=CCN(C(=O)CCN)CC3)ccc12` [Compound 149, 3-Amino-1-[4-(3-methylsulfanyl-1-phenyl-1H-indazol-6-yl)-3,6-dihydro-2H-pyridin-1-yl]-propan-1-one], 0.48 µM.
`Cc1nn(-c2ccccc2)c2nc(C3CCNCC3)nc(O)c12` [Compound 86, 3-Methyl-1-phenyl-6-piperidin-4-yl-1H-pyrazolo[3,4-d]pyrimidin-4-ol hydrochloride]: the midpoint of inhibition, the IC50, lay at 6.1 µM.
`CCc1nn(-c2ccccc2)c2cc(N3CCC(N4CCNCC4)CC3)ccc12` [Compound 36, 3-Ethyl-1-phenyl-6-(4-piperazin-1-yl-piperidin-1-yl)-1H-indazole hydrochloride] came in with an IC50 of 0.89 µM.
Turning to `CCN1CCN(c2ccc3c(C)nn(-c4ccccc4)c3c2)CC1` [Compound 69, 6-(4-Ethylpiperazin-1-yl)-3-methyl-1-phenyl-1H-indazole 2,2,2-trifluoroacetic acid salt], the half-inhibitory concentration (IC50) is 14.2 µM.
The compound `CSc1nn(-c2ccccc2)c2cc(NC(=O)c3cccnc3)ccc12` [Compound 14, N-(3-(Methylthio)-1-phenyl-1H-indazol-6-yl)nicotinamide] registered an IC50 of 0.23 µM. Against the preceding compound, the IC50 is about 62-fold lower.

(Values after patent US8822447B2, “Indazole compounds useful as ketohexokinase inhibitors” (Janssen Pharmaceutica NV, priority 2010, dated 2014).)
